According to US11369579B2 (SyneuRx International (Taiwan) Corp., priority 2016, dated 2022):
Entries after “also recorded” stand apart in the source; their conditions may differ.

Columns and labels:
[1] = Slurry conversion of polymorphic forms / thermodynamic stability comparison
[2] = Stability test under high humidity condition (>90% RH, 5 days), analyzed by XRPD; details: 500 mg

Row | SMILES | Thermodynamic stability among forms of sodium benzoate [1] | Change of XRPD pattern [2]
1 | O=C([O-])c1ccccc1.[Na+] [sodium benzoate from Formosa Laboratories] | less thermodynamically stable | significant changes; also recorded: changes in XRPD
2 | O=C([O-])c1ccccc1.[Na+] [sodium benzoate from Merck, sodium benzoate] | less thermodynamically stable | significant changes; also recorded: changes in XRPD
